Results as given in the NIST ThermoML archive (doi:10.1021/je800110r).
Several values for one entry are separate records, joined by “and”; a condition that tells them apart may be missing. Equal entries are not always repeated.

Details: 313.14 K, Liquid, Vibrating tube method

CCCCCCCCCC [decane]
Details	mass density
4519 kPa	718.5 kg/m3
4530 kPa	718.5 kg/m3
4546 kPa	718.5 kg/m3
4557 kPa	718.5 kg/m3
4572 kPa	718.5 kg/m3
4582 kPa	718.5 kg/m3
4599 kPa	718.5 kg/m3
4610 kPa	718.6 kg/m3
4621 kPa	718.5 kg/m3
4637 kPa	718.6 kg/m3
4652 kPa	718.6 kg/m3
4667 kPa	718.6 kg/m3
4685 kPa	718.6 kg/m3
4705 kPa	718.7 kg/m3
4723 kPa	718.6 kg/m3
4741 kPa	718.8 kg/m3
4755 kPa	718.6 kg/m3
4774 kPa	718.6 kg/m3
4792 kPa	718.7 kg/m3
4814 kPa	718.7 kg/m3
4825 kPa	718.7 kg/m3
4842 kPa	718.7 kg/m3
4859 kPa	718.8 kg/m3
4873 kPa	718.8 kg/m3
4891 kPa	718.7 kg/m3
4913 kPa	718.8 kg/m3
4930 kPa	718.8 kg/m3
4945 kPa	718.8 kg/m3
4968 kPa	718.8 kg/m3
4991 kPa	718.9 kg/m3
5004 kPa	718.8 kg/m3
5027 kPa	718.9 kg/m3
5042 kPa	718.9 kg/m3
5063 kPa	718.9 kg/m3
5079 kPa	719 kg/m3
5092 kPa	719 kg/m3
5111 kPa	719 kg/m3
5130 kPa	719 kg/m3
5149 kPa	719 kg/m3
5165 kPa	718.9 kg/m3
5185 kPa	719 kg/m3
5207 kPa	719 kg/m3
5230 kPa	719.2 kg/m3
5251 kPa	719.2 kg/m3
5270 kPa	719.1 kg/m3
5300 kPa	719.2 kg/m3
5315 kPa	719.3 kg/m3
5316 kPa	719.2 kg/m3
5318 kPa	719.2 kg/m3
5320 kPa	719.2 kg/m3
5321 kPa	719.1 kg/m3 and 719.3 kg/m3
5322 kPa	719.2 kg/m3
5338 kPa	719.1 kg/m3
5355 kPa	719.1 kg/m3
5373 kPa	719.2 kg/m3
5385 kPa	719.3 kg/m3
5399 kPa	719.3 kg/m3
5414 kPa	719.1 kg/m3
5430 kPa	719.2 kg/m3
5444 kPa	719.2 kg/m3
5461 kPa	719.2 kg/m3
5478 kPa	719.2 kg/m3
5498 kPa	719.3 kg/m3
5515 kPa	719.3 kg/m3
5537 kPa	719.4 kg/m3
5552 kPa	719.4 kg/m3
5568 kPa	719.4 kg/m3
5586 kPa	719.4 kg/m3
5603 kPa	719.4 kg/m3
5622 kPa	719.4 kg/m3
5636 kPa	719.4 kg/m3
5655 kPa	719.4 kg/m3
5671 kPa	719.5 kg/m3
5686 kPa	719.4 kg/m3
5705 kPa	719.4 kg/m3
5721 kPa	719.5 kg/m3
5739 kPa	719.5 kg/m3
5753 kPa	719.5 kg/m3
5771 kPa	719.5 kg/m3
5788 kPa	719.6 kg/m3
5803 kPa	719.5 kg/m3
5819 kPa	719.6 kg/m3
5838 kPa	719.5 kg/m3
5852 kPa	719.6 kg/m3
5871 kPa	719.7 kg/m3
5889 kPa	719.6 kg/m3
5906 kPa	719.7 kg/m3
5927 kPa	719.6 kg/m3
5946 kPa	719.7 kg/m3
5963 kPa	719.6 kg/m3
5982 kPa	719.7 kg/m3
6002 kPa	719.7 kg/m3
6019 kPa	719.8 kg/m3
6042 kPa	719.8 kg/m3
6064 kPa	719.8 kg/m3
6084 kPa	719.8 kg/m3
6100 kPa	719.8 kg/m3
6120 kPa	719.9 kg/m3
6140 kPa	719.8 kg/m3
6162 kPa	719.8 kg/m3
6180 kPa	719.9 kg/m3
6198 kPa	719.9 kg/m3
6202 kPa	719.8 kg/m3
6204 kPa	719.9 kg/m3
6213 kPa	719.9 kg/m3
6230 kPa	719.9 kg/m3
6246 kPa	719.9 kg/m3
6262 kPa	720 kg/m3
6278 kPa	719.9 kg/m3
6295 kPa	720 kg/m3
6313 kPa	720 kg/m3
6332 kPa	720 kg/m3
6353 kPa	720.1 kg/m3
6367 kPa	720 kg/m3
6383 kPa	720 kg/m3
6398 kPa	720.1 kg/m3
6420 kPa	720.1 kg/m3
6438 kPa	720.1 kg/m3
6453 kPa	720 kg/m3
6472 kPa	720.1 kg/m3
6484 kPa	720 kg/m3
6500 kPa	720.1 kg/m3
6518 kPa	720.1 kg/m3
6531 kPa	720.1 kg/m3
6545 kPa	720.1 kg/m3
6559 kPa	720.1 kg/m3
6575 kPa	720.1 kg/m3
6586 kPa	720.2 kg/m3
6599 kPa	720.3 kg/m3
6611 kPa	720.2 kg/m3
6626 kPa	720.1 kg/m3
6643 kPa	720.3 kg/m3
6658 kPa	720.3 kg/m3
6675 kPa	720.3 kg/m3
6689 kPa	720.2 kg/m3
6708 kPa	720.2 kg/m3
6723 kPa	720.2 kg/m3
6742 kPa	720.4 kg/m3
6755 kPa	720.3 kg/m3
6767 kPa	720.4 kg/m3
6785 kPa	720.4 kg/m3
6815 kPa	720.3 kg/m3
6833 kPa	720.3 kg/m3
6865 kPa	720.4 kg/m3
6886 kPa	720.5 kg/m3
6901 kPa	720.4 kg/m3
6948 kPa	720.6 kg/m3
6966 kPa	720.6 kg/m3
6975 kPa	720.6 kg/m3
6989 kPa	720.6 kg/m3
7007 kPa	720.5 kg/m3
7019 kPa	720.6 kg/m3
7031 kPa	720.6 kg/m3
7045 kPa	720.6 kg/m3
7061 kPa	720.6 kg/m3
7077 kPa	720.6 kg/m3
7089 kPa	720.7 kg/m3
7101 kPa	720.6 kg/m3
7118 kPa	720.6 kg/m3
7136 kPa	720.7 kg/m3
7149 kPa	720.6 kg/m3
7165 kPa	720.7 kg/m3
7180 kPa	720.7 kg/m3
7195 kPa	720.7 kg/m3
7209 kPa	720.7 kg/m3
7226 kPa	720.7 kg/m3
7241 kPa	720.8 kg/m3
7252 kPa	720.6 kg/m3
7264 kPa	720.7 kg/m3
7279 kPa	720.8 kg/m3
7292 kPa	720.8 kg/m3
7306 kPa	720.8 kg/m3
7317 kPa	720.7 kg/m3
7332 kPa	720.8 kg/m3
7347 kPa	720.8 kg/m3
7360 kPa	720.9 kg/m3
7375 kPa	720.8 kg/m3
7392 kPa	720.9 kg/m3
7410 kPa	720.8 kg/m3
7423 kPa	720.9 kg/m3
7441 kPa	720.8 kg/m3
7455 kPa	720.9 kg/m3
7473 kPa	720.9 kg/m3
7487 kPa	721 kg/m3
7507 kPa	721 kg/m3
7523 kPa	721 kg/m3
7537 kPa	720.9 kg/m3
7553 kPa	720.9 kg/m3
7569 kPa	721.1 kg/m3
7590 kPa	721 kg/m3
7605 kPa	721 kg/m3
7621 kPa	721.1 kg/m3
7635 kPa	721.1 kg/m3
7652 kPa	721.1 kg/m3
7666 kPa	721.1 kg/m3
7683 kPa	721.1 kg/m3
7702 kPa	721 kg/m3
7717 kPa	721.1 kg/m3
7731 kPa	721.2 kg/m3
7750 kPa	721.2 kg/m3
7768 kPa	721.2 kg/m3
7782 kPa	721.1 kg/m3
7805 kPa	721.2 kg/m3
7820 kPa	721.3 kg/m3
7835 kPa	721.2 kg/m3
7851 kPa	721.3 kg/m3
7873 kPa	721.2 kg/m3
7890 kPa	721.3 kg/m3
7910 kPa	721.2 kg/m3
7922 kPa	721.3 kg/m3
7941 kPa	721.2 kg/m3
7959 kPa	721.4 kg/m3
8144 kPa	721.4 kg/m3
8162 kPa	721.4 kg/m3
8174 kPa	721.5 kg/m3
8184 kPa	721.6 kg/m3
8194 kPa	721.6 kg/m3
8205 kPa	721.5 kg/m3
8220 kPa	721.6 kg/m3
8237 kPa	721.5 kg/m3
8248 kPa	721.5 kg/m3
8262 kPa	721.5 kg/m3
8277 kPa	721.6 kg/m3
8293 kPa	721.5 kg/m3
8309 kPa	721.7 kg/m3
8321 kPa	721.6 kg/m3
8338 kPa	721.7 kg/m3
8352 kPa	721.6 kg/m3
8364 kPa	721.7 kg/m3
8383 kPa	721.6 kg/m3
8395 kPa	721.7 kg/m3
8410 kPa	721.7 kg/m3
8421 kPa	721.7 kg/m3
8435 kPa	721.8 kg/m3
8448 kPa	721.8 kg/m3
8462 kPa	721.7 kg/m3
8482 kPa	721.9 kg/m3
8494 kPa	721.8 kg/m3
8514 kPa	721.7 kg/m3
8524 kPa	721.8 kg/m3
8544 kPa	721.9 kg/m3
8559 kPa	721.8 kg/m3
8579 kPa	721.8 kg/m3
8592 kPa	721.8 kg/m3
8614 kPa	721.8 kg/m3
8629 kPa	721.8 kg/m3
8680 kPa	721.9 kg/m3
8691 kPa	722.1 kg/m3
8725 kPa	722.1 kg/m3
8740 kPa	722 kg/m3
8754 kPa	722 kg/m3
8773 kPa	722 kg/m3
8791 kPa	722 kg/m3
8807 kPa	722.1 kg/m3
8821 kPa	722 kg/m3
8835 kPa	721.9 kg/m3
8858 kPa	722.1 kg/m3
8876 kPa	722.2 kg/m3
8897 kPa	722.1 kg/m3
8911 kPa	722.1 kg/m3
8930 kPa	722.1 kg/m3
8944 kPa	722 kg/m3
8964 kPa	722 kg/m3
8980 kPa	722.1 kg/m3
9004 kPa	722.1 kg/m3
9023 kPa	722.2 kg/m3
9038 kPa	722.2 kg/m3
9053 kPa	722.2 kg/m3
9075 kPa	722.3 kg/m3
9092 kPa	722.2 kg/m3
9106 kPa	722.2 kg/m3
9121 kPa	722.3 kg/m3
9138 kPa	722.3 kg/m3
